# Legend:
# [1] = tested on: human colon cancer cell line DLD-1; experiment: Cancer cell growth inhibition, DLD-1 (sulforhodamine B); type: cell-based; conditions: DLD-1, 72 hours, 37° C.
# Protocol: (§1) For the assessment of the inhibitory activity of BE-12406A, B, X1 and X2 against human cancer cells, in vitro tests were carried out. As the test cells, human colon cancer cell lines DLD-1 and LS180 and human lung cancer cell line PC13 were used. The cell culture medium was 10% fetal calf serum-RPMI medium for DLD-1 and LS180, and 10% fetal calf serum-RPMI-1640 medium for PC13. First, each of BE-12406A, B, X1 and X2 was dissolved in dimethyl sulfoxide and the solution was serially diluted with PBS (phosphate-buffered saline) to prepare test solutions. The cancer cell growth inhibition assay was performed as follows. Thus, 100 μl of a cell culture medium containing 3×10^3 cancer cells was distributed into a 96-well microtiter plate and incubated under 5% CO2 at 37° C. for 24 hours. Then, 11 μl of the above test solutions were added and the incubation was further carried out under 5% CO2 at 37° C. for an additional 72 hours. The cells were then fixed with 50% trichloroacetic acid and stained with 0.4% sulforhodamine B. From the stained cells, the dye was extracted with 10 mM Tris solution and the absorbance at 540 nm was measured and compared with the control.
# [2] = tested on: human colon cancer cell line LS180; experiment: Cancer cell growth inhibition, LS180 (sulforhodamine B); type: cell-based; conditions: LS180, 72 hours, 37° C.; for IC50: Homo sapiens
# Protocol: as §1
# [3] = tested on: human lung cancer cell line PC13; experiment: Cancer cell growth inhibition, PC13 (sulforhodamine B); type: cell-based; conditions: PC-13, PC13, 72 hours, 37° C.
# Protocol: as §1
# Solubility = type: physicochemical; conditions: for Solubility in organic solvents: dimethyl sulfoxide and other organic solvents
# human cancer cells = experiment: In vitro growth inhibition of human cancer cells DLD-1, LS180 and PC13 (overall statement); type: cell-based; conditions: DLD-1, LS180, PC13; 72 hours, 37° C.
# Protocol: as §1
# P388/S tumor cells = experiment: In vitro growth inhibition of P388/S tumor cells (Coulter counter); type: cell-based; conditions: Mus musculus, 72 hours, 37° C., read-out: IC50, concentration causing 50% inhibition of P388/S cell growth
# Protocol: (§2) In vitro activity tests were performed for evaluating the inhibitory activities of the antitumor substances BE-12406A and B against mouse tumor cells. In the in vitro antitumor assay using P388 tumor cells, the antitumor substance BE-12406A or B was first dissolved in dimethyl sulfoxide and the solution was serially diluted with a cell culture medium containing 20% of dimethyl sulfoxide (20% DMSO-RPMI-1640 medium). Then, 2 μl of each dilution was added to 200 μl of a cell culture medium (10% fetal calf serum-RPMI-1640 medium) containing 2.5×10^4 tumor cells and the mixture was incubated under 5% CO2 at 37° C. for 72 hours. The viable cells were then counted with a Coulter counter. The result was compared with the control data. […] The corresponding values for P388/V cells were 0.2 and 7 μM, respectively.
# (§3) The P388/S tumor cell line is one of the common mouse leukemia cell lines, and the P388/V line is a strain of P388 leukemia cell which has acquired resistance to the anticancer agent vincristine.
# P388/V cells = experiment: In vitro growth inhibition of P388/V cells (vincristine-resistant); type: cell-based; conditions: Mus musculus, 72 hours, 37° C., read-out: IC50, 50% inhibition of P388/V cell growth
# Protocol: as §2, §3
# P388/A cells = experiment: In vitro growth inhibition of P388/A cells (adriamycin-resistant); type: cell-based, mouse; conditions: for IC50: Mus musculus, P388/A (adriamycin-resistant), read-out: IC50, 50% inhibitory concentration, P388/A; for inhibition of P388/A cells (in words): adriamycin-resistant
# Protocol: as §2
# HeLa cells = experiment: In vitro growth inhibition of HeLa cells (Crystal Violet); type: cell-based, human; conditions: 72 hours, 37° C.; for IC50: Homo sapiens, HeLa, read-out: IC50, 50% inhibitory concentration, HeLa
# Protocol: (§4) Then, the in vitro inhibitory activity of BE-12406A and B was assayed using HeLa cells, which are human cancer cells, and L1210 cells which are mouse leukemia cells.
# Thus, antitumor substance BE-12406A or B in a concentration series was added to 200 μl of a cell culture medium (10% fetal calf serum-MEM medium) containing 4×10^3 HeLa cells and the mixture was incubated under 5% CO2 at 37° C. for 72 hours. The surviving adherent cells were fixed with 10% formalin and stained with 0.01% Crystal Violet. Using a 1:1 (v/v) mixture of ethylene glycol and ethanol, the dye was extracted from the stained cells and the absorbance at 590 nm was measured and compared with the control.
# L1210 cells = experiment: In vitro growth inhibition of L1210 cells (Coulter counter); type: cell-based, mouse; conditions: 37° C.; for growth inhibition of L1210 cells (in words): 72 hours; for IC50: Mus musculus, L1210, 72 hours, read-out: IC50, 50% inhibitory concentration, L1210
# Protocol: as §4
# The growth inhibition assay using L1210 cells was performed as follows. Thus, antitumor substance BE-12406A or B in a concentration series was added to 200 μl of a cell culture medium (10% fetal calf serum-RPMI-1640) containing 4.5×10^3 L1210 cells and the mixture was incubated under 5% CO2 at 37° C. for 72 hours. The surviving suspended cells were counted with a Coulter counter and the result was compared with the control.
# S-180 ascites tumor = experiment: Antitumor effect on transplanted mouse S-180 ascites tumor (survival); type: in vivo; conditions: i.p.; for MST (mean survival time): days 1, 4, 7, 9 and 13, female ICR mice; for MST (% T/C), (treated MST/control MST) × 100: ≥ 125 = marked antitumor effect
# Protocol: In this assay using mice, 10^6 (lethal dose) S-180 tumor cells pre mouse were intrapetitoneally administered and the 5% DMSO-PBS (phosphate Buffered Saline solution of BE-12406A in a dilution series (1:2, 1:4, 1:8, etc.) was intraperitoneally administered. The results are summarized in Table 3.
# ^1 Inoculum: 10^6 ascites tumor cells, intraperitoneal
# ^2 Host: Female ICR mice
# ^3 Treatment schedule: BE12406A was administered intraperitoneally on
# ^4 MST: Mean survival time (in days)
# ^5 % T/C: (treated MST/control MST) × 100
# ^6 Criteria: When % T/C ≥ 125, the test compound was considere
# to produce a marked antitumor effect at the particular concentration.
# [4] = Acute toxicity in mice, single intraperitoneal dosing; type: in vivo, mouse (ICR; conditions: 100 mg/kg, ICR female mice
# P388 tumor cells = experiment: In vitro growth inhibition of P388 tumor cells (overall statement); type: cell-based, mouse; conditions: 72 hours, 37° C.
# Protocol: as §2
IC50 [1] [µM],IC50 [2] [µM],IC50 [3] [µM],Solubility in organic solvents (Solubility; dimethylformamide),Solubility in water (Solubility),Compound,growth inhibition of human cancer cells (in words) (human cancer cells),IC50 (P388/S tumor cells) [µM],IC50 (P388/V cells) [µM],IC50 (P388/A cells) [µM],inhibition of P388/A cells (in words) (P388/A cells),growth inhibition of HeLa cells (in words) (HeLa cells),IC50 (HeLa cells) [µM],growth inhibition of L1210 cells (in words) (L1210 cells),IC50 (L1210 cells) [µM],inhibition of proliferation of LS180 (in words) [2],Solubility in organic solvents (Solubility; tetrahydrofuran),growth inhibition of P388 tumor cells (in words) (P388 tumor cells),also measured
> 311,311,> 311,soluble,Sparingly soluble,COc1cc(C)cc2c(=O)oc3c4cccc(O)c4c(O)cc3c12 [BE-12406X2],inhibit the growth,,,,,,,,,,,,
> 220,88.1,161,,Sparingly soluble,Cc1cc(O)c2c(c1)c(=O)oc1c3cccc(O)c3c(OC3OC(C)C(O)C(O)C3O)cc12 (centres unmarked) [BE-12406B],inhibit the growth,7,7,11,inhibited,inhibited growth,20,inhibited growth,60,,readily soluble,markedly inhibit the growth,
91.9,36.3,115,soluble,Sparingly soluble,COc1cc(C)cc2c(=O)oc3c4cccc(OC5OC(C)C(O)C(O)C5O)c4c(O)cc3c12 (centres unmarked) [BE-12406X1],inhibit the growth,,,,,,,,,markedly inhibited proliferation,,,

Compound,IC50 [1] [µM],IC50 [2] [µM],IC50 [3] [µM],Solubility in organic solvents (Solubility; dimethylformamide),Solubility in water (Solubility),growth inhibition of human cancer cells (in words) (human cancer cells),IC50 (P388/S tumor cells) [µM],IC50 (P388/V cells) [µM],IC50 (P388/A cells) [µM],inhibition of P388/A cells (in words) (P388/A cells),growth inhibition of HeLa cells (in words) (HeLa cells),IC50 (HeLa cells) [µM],growth inhibition of L1210 cells (in words) (L1210 cells),IC50 (L1210 cells) [µM],inhibition of proliferation of LS180 (in words) [2],Solubility in organic solvents (Solubility; tetrahydrofuran),growth inhibition of P388 tumor cells (in words) (P388 tumor cells),also measured
COc1cc(C)cc2c(=O)oc3c4cccc(O)c4c(OC4OC(C)C(O)C(O)C4O)cc3c12 (centres unmarked) [BE-12406A],18.4,12,20.7,,Sparingly soluble,inhibit the growth,0.8,0.2,0.9,inhibited,inhibited growth,11,inhibited growth,9.6,markedly inhibited proliferation,readily soluble,markedly inhibit the growth,"MST (mean survival time) (S-180 ascites tumor; 2.5 mg/kg/injection): 12.0 days; MST (% T/C), (treated MST/control MST) × 100 (S-180 ascites tumor; 2.5 mg/kg/injection): 120 % T/C; MST (mean survival time) (S-180 ascites tumor; 5 mg/kg/injection): 13.0 days; MST (% T/C), (treated MST/control MST) × 100 (S-180 ascites tumor; 5 mg/kg/injection): 130 % T/C; MST (mean survival time) (S-180 ascites tumor; 10 mg/kg/injection): 15.0 days; MST (% T/C), (treated MST/control MST) × 100 (S-180 ascites tumor; 10 mg/kg/injection): 150 % T/C; MST (mean survival time) (S-180 ascites tumor; 20 mg/kg/injection): > 30.0 days; MST (% T/C), (treated MST/control MST) × 100 (S-180 ascites tumor; 20 mg/kg/injection): > 300 % T/C; MST (mean survival time) (S-180 ascites tumor; 40 mg/kg/injection): > 30.0 days; MST (% T/C), (treated MST/control MST) × 100 (S-180 ascites tumor; 40 mg/kg/injection): > 300 % T/C; antitumor effect on transplanted S-180 tumor cells (in words) (S-180 ascites tumor; mice): showed an antitumor effect; acute toxicity, death on day 5 [4]: no death was found"

# From patent publication US5061695A, “Antitumor substance BE-12406” (Banyu Pharmaceutical Co., Ltd., priority 1989, dated 1991)
